# Measurements from patent US10781224B2, “Bis(oxymethyl)phosphinic acid and biogenic metal salts thereof as regulators of plant growth and development” (priority 2016, dated 2020).
# Columns and labels:
# Format in all cases: in vivo
# rice (Diamant variety) = assay: Rice seed treatment with BHMPA salts: germination energy and germination rate
# Procedure: (§1) Control—Soaking Seeds in Water;
# (§2) Experimental versions—soaking seeds in BHMPA solutions and solutions of BHMPA Ca, Mg, Na, Co, Mn, Cu, and Zn salts at 1·10^−6-1·10^−12% concentrations (doses). The studies were conducted in laboratory in Petri dishes; seed bed—two layers of filter paper. 50 seeds soaked in water (control) and in the solutions of the tested compounds (experimental) were placed into each dish. Wheat, corn, and rice seeds were exposed for one hour.
# (§3) Analysis was conducted according to the government standards GOST 12038-84 “Crop seeds. Technical conditions for determining the germination energy and germination rate”, GOST 12044-93 “Crop seeds. Methods for determining disease contamination.”
# (§4) Seed germination energy and rate were calculated in percent as an arithmetic mean of the four experimental results (germination energy on the 4th day, wheat germination on the 8th day, rice and corn germination—on the 7th day). Germination was determined based on the germinating power indicators (length of the roots and sprouts and their wet and dry mass per 100 shoots).
# (§5) The effect of pre-sowing seed treatment with the claimed BHMPA salts of biogenic metals was studied on winter wheat (Vershin variety), corn (Krasnodar 385 MV variety), and rice (Diamant variety).
# [1] = test system: corn (Krasnodar 385 MV variety); assay: Corn seed treatment with BHMPA salts: germinating power
# Procedure: as §2, §4, §5
# The above data describe the seed viability only at the initial stage of germination, while the germination ability at the later stage of germination is defined by the initial germinating power. The method for the determination of the germinating power comprises measuring the height of the sprouts and primary roots, as well as the biomass and the dry mass thereof per 100 seedlings. [M. A. Kartuzova. Initial Germinating Power as Method of Biological Assessment of Seed Quality. Selection and Seed Farming, #2, 1953].
# [2] = test system: winter wheat (Vershin variety); assay: Winter wheat seed treatment with BHMPA salts: germination energy and germination rate
# Procedure: as §1, §2, §3, §4, §5
# [3] = rice seed treatment, solution 1 · 10^−9%
# [4] = seed treatment, concentration 1 · 10^−6%
# [5] = seed treatment, concentration 1 · 10^−7%
# [6] = seed treatment, concentration 1 · 10^−8%
# [7] = seed treatment, concentration 1 · 10^−9%
# [8] = seed treatment, concentration 1 · 10^−10%
# [9] = seed treatment, concentration 1 · 10^−11%
# [10] = seed treatment, concentration 1 · 10^−12%
# [11] = corn seeds, solution concentration 1 · 10^−6%, cobalt salt of BHMPA
# [12] = corn seeds, solution concentration 1 · 10^−7%, cobalt salt of BHMPA
# [13] = corn seeds, solution concentration 1 · 10^−8%, cobalt salt of BHMPA
# [14] = corn seeds, solution concentration 1 · 10^−9%, cobalt salt of BHMPA
# [15] = corn seeds, solution concentration 1 · 10^−10%, cobalt salt of BHMPA
# [16] = corn seeds, solution concentration 1 · 10^−11%, cobalt salt of BHMPA
# [17] = corn seeds, solution concentration 1 · 10^−12%, cobalt salt of BHMPA
# [18] = winter wheat Vershin, 1·10^−6% solution
# [19] = winter wheat Vershin, 1·10^−7% solution
# [20] = winter wheat Vershin, 1·10^−8% solution
# [21] = winter wheat Vershin, 1·10^−9% solution
# [22] = winter wheat Vershin, 1·10^−10% solution
# [23] = winter wheat Vershin, 1·10^−11% solution
# [24] = winter wheat Vershin, 1·10^−12% solution
# [25] = winter wheat, comparative study vs Melaphen, 1·10^−10% solution
structure (smiles),measurement,setting,value
"O.O.O=P([O-])(CO)CO.O=P([O-])(CO)CO.[Co+2] [Co-salt, Cobalt BHMPA Salt]","Germination energy, %",rice (Diamant variety); [3],87.5%
same,"Germination rate, %",rice (Diamant variety); [3],94.5%
same,Germination energy,"rice (Diamant variety); rice, 1·10^−9% solution",86.3%
same,Germination rate,"rice (Diamant variety); rice, 1·10^−9% solution",93.7%
same,Germination energy,rice (Diamant variety); [4],80.7%
same,Germination rate,rice (Diamant variety); [4],84.0%
same,Germination energy,rice (Diamant variety); [5],83.0%
same,Germination rate,rice (Diamant variety); [5],87.0%
same,Germination energy,rice (Diamant variety); [6],84.0%
same,Germination rate,rice (Diamant variety); [6],90.3%
same,Germination energy,rice (Diamant variety); [7],86.3%
same,Germination rate,rice (Diamant variety); [7],93.7%
same,Germination energy,rice (Diamant variety); [8],85.7%
same,Germination rate,rice (Diamant variety); [8],91.3%
same,Germination energy,rice (Diamant variety); [9],84.0%
same,Germination rate,rice (Diamant variety); [9],88.0%
same,Germination energy,rice (Diamant variety); [10],81.3%
same,Germination rate,rice (Diamant variety); [10],85.3%
same,optimum concentration for treating corn seeds before sowing,[1]; corn,1·10^−7%
same,"Length, root",[1]; [11],5.0 cm
same,"Length, root, + % to control",[1]; [11],6%
same,"Length, sprout",[1]; [11],3.2 cm
same,"Length, sprout, + % to control",[1]; [11],7%
same,"Mass, dry, root",[1]; [11],1.31 g/100 plantlings
same,"Mass, dry, root, + % to control",[1]; [11],5%
same,"Mass, dry, sprout",[1]; [11],1.09 g/100 plantlings
same,"Mass, dry, sprout, + % to control",[1]; [11],12%
same,"Mass, wet, root",[1]; [11],9.76 g/100 plantlings
same,"Mass, wet, root, + % to control",[1]; [11],9%
same,"Mass, wet, sprout",[1]; [11],7.75 g/100 plantlings
same,"Mass, wet, sprout, + % to control",[1]; [11],24.5%
same,"Length, root",[1]; [12],6.2 cm
same,"Length, root, + % to control",[1]; [12],32%
same,"Length, sprout",[1]; [12],3.8 cm
same,"Length, sprout, + % to control",[1]; [12],27%
same,"Mass, dry, root",[1]; [12],1.44 g/100 plantlings
same,"Mass, dry, sprout",[1]; [12],1.21 g/100 plantlings
same,"Mass, dry, sprout, + % to control",[1]; [12],25%
same,"Mass, wet, root",[1]; [12],10.77 g/100 plantlings
same,"Mass, wet, root, + % to control",[1]; [12],20%
same,"Mass, wet, sprout",[1]; [12],9.96 g/100 plantlings
same,"Mass, wet, sprout, + % to control",[1]; [12],60%
same,"Length, root",[1]; [13],5.6 cm
same,"Length, root, + % to control",[1]; [13],19%
same,"Length, sprout",[1]; [13],3.6 cm
same,"Length, sprout, + % to control",[1]; [13],20%
same,"Mass, dry, root",[1]; [13],1.37 g/100 plantlings
same,"Mass, dry, root, + % to control",[1]; [13],10%
same,"Mass, dry, sprout",[1]; [13],1.14 g/100 plantlings
same,"Mass, dry, sprout, + % to control",[1]; [13],17.5%
same,"Mass, wet, root",[1]; [13],10.17 g/100 plantlings
same,"Mass, wet, root, + % to control",[1]; [13],13%
same,"Mass, wet, sprout",[1]; [13],9.00 g/100 plantlings
same,"Mass, wet, sprout, + % to control",[1]; [13],45%
same,"Length, root",[1]; [14],5.0 cm
same,"Length, root, + % to control",[1]; [14],6%
same,"Length, sprout",[1]; [14],3.5 cm
same,"Length, sprout, + % to control",[1]; [14],17%
same,"Mass, dry, root",[1]; [14],1.31 g/100 plantlings
same,"Mass, dry, root, + % to control",[1]; [14],5%
same,"Mass, dry, sprout",[1]; [14],1.07 g/100 plantlings
same,"Mass, dry, sprout, + % to control",[1]; [14],10%
same,"Mass, wet, root",[1]; [14],10.00 g/100 plantlings
same,"Mass, wet, root, + % to control",[1]; [14],11%
same,"Mass, wet, sprout",[1]; [14],7.58 g/100 plantlings
same,"Mass, wet, sprout, + % to control",[1]; [14],22%
same,"Length, root",[1]; [15],4.9 cm
same,"Length, root, + % to control",[1]; [15],4%
same,"Length, sprout",[1]; [15],3.3 cm
same,"Length, sprout, + % to control",[1]; [15],10%
same,"Mass, dry, root",[1]; [15],1.29 g/100 plantlings
same,"Mass, dry, root, + % to control",[1]; [15],3%
same,"Mass, dry, sprout",[1]; [15],1.03 g/100 plantlings
same,"Mass, dry, sprout, + % to control",[1]; [15],6%
same,"Mass, wet, root",[1]; [15],9.80 g/100 plantlings
same,"Mass, wet, root, + % to control",[1]; [15],9%
same,"Mass, wet, sprout",[1]; [15],6.75 g/100 plantlings
same,"Mass, wet, sprout, + % to control",[1]; [15],8.5%
same,"Length, root",[1]; [16],4.5 cm
same,"Length, root, + % to control",[1]; [16],−4%
same,"Length, sprout",[1]; [16],3.0 cm
same,"Length, sprout, + % to control",[1]; [16],0%
same,"Mass, dry, root",[1]; [16],1.27 g/100 plantlings
same,"Mass, dry, root, + % to control",[1]; [16],2%
same,"Mass, dry, sprout",[1]; [16],0.98 g/100 plantlings
same,"Mass, dry, sprout, + % to control",[1]; [16],1%
same,"Mass, wet, root",[1]; [16],9.62 g/100 plantlings
same,"Mass, wet, root, + % to control",[1]; [16],7%
same,"Mass, wet, sprout",[1]; [16],6.41 g/100 plantlings
same,"Mass, wet, sprout, + % to control",[1]; [16],3%
same,"Length, root",[1]; [17],4.2 cm
same,"Length, root, + % to control",[1]; [17],−11%
same,"Length, sprout",[1]; [17],2.9 cm
same,"Length, sprout, + % to control",[1]; [17],−3%
same,"Mass, dry, root",[1]; [17],1.22 g/100 plantlings
same,"Mass, dry, root, + % to control",[1]; [17],−2%
same,"Mass, dry, sprout",[1]; [17],0.98 g/100 plantlings
same,"Mass, dry, sprout, + % to control",[1]; [17],1%
same,"Mass, wet, root",[1]; [17],9.28 g/100 plantlings
same,"Mass, wet, root, + % to control",[1]; [17],3%
same,"Mass, wet, sprout",[1]; [17],6.23 g/100 plantlings
same,"Mass, wet, sprout, + % to control",[1]; [17],0%
same,"Length, root, + % to control","[1]; corn, 1·10^−7% solution",32%
same,"Length, sprout, + % to control","[1]; corn, 1·10^−7% solution",27%
same,"Mass, dry, root, + % to control","[1]; corn, 1·10^−7% solution",15%
same,"Mass, dry, sprout, + % to control","[1]; corn, 1·10^−7% solution",25%
same,"Mass, wet, root, + % to control","[1]; corn, 1·10^−7% solution",20%
same,"Mass, wet, sprout, + % to control","[1]; corn, 1·10^−7% solution",60%
same,germination intensity vs control,"[1]; corn, 1·10^−11% and 1·10^−12% solutions",no increase in the germination intensity
same,Germination energy,[2]; [18],89.2%
same,Germination rate,[2]; [18],93.0%
same,Germination energy,[2]; [19],91.4%
same,Germination rate,[2]; [19],94.0%
same,Germination energy,[2]; [20],92.8%
same,Germination rate,[2]; [20],96.0%
same,Germination energy,[2]; [21],94.3%
same,Germination rate,[2]; [21],97.3%
same,Germination energy,[2]; [22],95.6%
same,Germination rate,[2]; [22],98.7%
same,Germination energy,[2]; [23],94.7%
same,Germination rate,[2]; [23],97.3%
same,Germination energy,[2]; [24],92.0%
same,Germination rate,[2]; [24],94.7%
same,Germination energy,[2]; [25],93.7%
same,Germination rate,[2]; [25],97.3%
